Laboratory results: patent US12048678B2, “Compounds for treating myelin related disorders” (Case Western Reserve University, priority 2018, dated 2024)

Tests used:
[1] = tested on: oligodendrocyte progenitor cells (OPCs), OPC-5; assay: Differentiation of OPCs to MBP+ oligodendrocytes (in vitro phenotypic screening, high-content imaging); assay type: cell-based, mouse; conditions: for activation at 0.03 µM / activation at 0.1 µM / activation at 0.3 µM / activation at 1 µM: Mus musculus, Oligodendrocyte progenitor cell, 72 h treatment; for activation at 0.03 µM: read-out: % enhancement of MBP+ oligodendrocyte generation at 0.03 μM concentration; for activation at 0.1 µM: read-out: % enhancement of MBP+ oligodendrocyte generation at 0.1 μM concentration; for activation at 0.3 µM: read-out: % enhancement of MBP+ oligodendrocyte generation at 0.3 μM concentration; for activation at 1 µM: read-out: % enhancement of MBP+ oligodendrocyte generation at 1 μM concentration; for enhancement of oligodendrocyte formation (in words): OPC-5, FIGS. 2a-2c
Procedure: To rigorously assess effects of small molecule and genetic treatments on OPCs, all treatments were assayed in two batches of epiblast stem cell-derived OPCs, and key results were confirmed using mouse primary OPCs. OPCs were generated from two separate EpiSC lines, EpiSC5 (giving rise to OPC-5 OPCs) and 12901 (giving rise to OPC-1 OPCs). EpiSC-derived OPCs were obtained using in vitro differentiation protocols and culture conditions described previously. To ensure uniformity throughout all in vitro screening experiments, EpiSC-derived OPCs were sorted to purity by fluorescence activated cell sorting at passage five with conjugated CD 140a-APC (eBioscience, 17-1401; 1:80) and NG2-AF488 (Millipore, AB5320A4; 1:100) antibodies. Sorted batches of OPCs were expanded and frozen down in aliquots. OPCs were thawed into growth conditions for one passage before use in further assays. Cultures were regularly tested and shown to be mycoplasma free.
EpiSC-derived OPCs were grown and expanded in poly-ornithine (PO) and laminin-coated flasks with growth medium (DMEM/F12 supplemented with N2-MAX (R&D Systems), B-27 (ThermoFisher), GlutaMax (Gibco), FGF2 ([…], R&D systems, 233-FB-025) and PDGF-AA ([…], R&D systems, 233-AA-050) before harvesting for plating. The cells were seeded onto poly-D-lysine 96-well CellCarrier or CellCarrierUltra plates (PerkinElmer) coated with laminin (Sigma, L2020; 15 μg/ml) using multi-channel pipet. For the experiment, 800,000 cells/mL stock in differentiation medium (DMEM/F12 supplemented with N2-MAX and B-27) was prepared and stored on ice for 2 h. Then, 40,000 cells were seeded per well in differentiation medium and allowed to attach for 30 min before addition of drug. For dose-response testing of all molecules except sterols, a 1000× compound stock in dimethyl sulphoxide (DMSO) was added to assay plates with 0.1 μL solid pin multi-blot replicators (V & P Scientific; VP 409), resulting in a final primary screening concentration of 1×. Cells were incubated under standard conditions (37° C., 5% CO2) for 3 days and fixed with 4% paraformaldehyde (PFA) in phosphate buffered saline (PBS) for 20 min. Fixed plates were washed with PBS (200 μL per well) twice, permeabilized with 0.1% Triton X-100 and blocked with 10% donkey serum (v/v) in PBS for 40 min. Then, cells were labelled with MBP antibodies (Abcam, ab7349; 1:200) for 16 h at 4° C. followed by detection with Alexa Fluor conjugated secondary antibodies (1:500) for 45 min. Nuclei were visualized by DAPI staining (Sigma; 1 μg/ml). During washing steps, PBS was added using a multi-channel pipet and aspiration was performed using Biotek EL406 washer dispenser (Biotek) equipped with a 96-well aspiration manifold.
Plates were imaged on the Operetta High Content Imaging and Analysis system (PerkinElmer) and a set of 6 fields captured from each well resulting in an average of 1200 cells being scored per well. Analysis (PerkinElmer Harmony and Columbus software) began by identifying intact nuclei stained by DAPI; that is, those traced nuclei that were larger than 300 μm2 in surface area. Each traced nucleus region was then expanded by 50% and cross-referenced with the […] (MBP) stain to identify oligodendrocyte nuclei, and from this the percentage of oligodendrocytes was calculated.

[2] = tested on: cholesterol biosynthesis in OPCs (CYP51, TM7SF2, EBP); assay: GC/MS-based sterol profiling in OPCs; assay type: cell-based, mouse; conditions: GC-MS
Procedure: EpiSC-derived OPCs were plated at 0.5 million cells per ml in PDL- and laminin-coated six or twelve well plate with differentiation media. After 24 hours, cells were dissociated with Accutase, rinsed with saline, and cell pellets were frozen. For sterol analyses, cells were lysed in methanol (Sigma-Aldrich) with agitation for 30 minutes and cell debris removed by centrifugation at 10,000 rpm for 15 min. Cholesterol-d7 standard (25,26,26,26,27,27,27-^2H7-cholesterol, Cambridge Isotope Laboratories) was added before drying under nitrogen stream and derivatization with 55 μl of bis(trimethylsilyl)trifluoroacetamide/trimethylchlorosilane to form trimethylsilyl derivatives. Following derivatization at 60° C. for 20 minutes, 1 μl was analyzed by gas chromatography/mass spectrometry using an Agilent 5973 Network Mass Selective Detector equipped with a 6890 gas chromatograph system and a HP-5MS capillary column ([…]). Samples were injected in splitless mode and analyzed using electron impact ionization. Ion fragment peaks were integrated to calculate sterol abundance, and quantitation was relative to cholesterol-d7. The following m/z ion fragments were used to quantitate each metabolite: cholesterol-d7 (465), FF-Mas (482), cholesterol (368), zymostenol (458), zymosterol (456), desmosterol (456, 343), 7-dehydrocholesterol (456, 325), lanosterol (393), lathosterol (458), 14-dehydrozymostenol (456). Calibration curves were generated by injecting varying concentrations of sterol standards and maintaining a fixed amount of cholesterol-D7. The human glioma cell line GBM528 was a gift of Jeremy Rich (Cleveland Clinic). Human cortical spheroids were generated as described previously.

[3] = target: T1, M1 muscarinic receptor (Homo sapiens, UniProt P11229); assay: Muscarinic receptor antagonism assay (GeneBLAzer M1-NFAT-bla CHO-K1 cells); assay type: cell-based; conditions: Compound 1 at 1 μM, TASIN-1 100 nM; concentration maximally effective for oligodendrocyte formation
T1 sequence (P11229 1-460): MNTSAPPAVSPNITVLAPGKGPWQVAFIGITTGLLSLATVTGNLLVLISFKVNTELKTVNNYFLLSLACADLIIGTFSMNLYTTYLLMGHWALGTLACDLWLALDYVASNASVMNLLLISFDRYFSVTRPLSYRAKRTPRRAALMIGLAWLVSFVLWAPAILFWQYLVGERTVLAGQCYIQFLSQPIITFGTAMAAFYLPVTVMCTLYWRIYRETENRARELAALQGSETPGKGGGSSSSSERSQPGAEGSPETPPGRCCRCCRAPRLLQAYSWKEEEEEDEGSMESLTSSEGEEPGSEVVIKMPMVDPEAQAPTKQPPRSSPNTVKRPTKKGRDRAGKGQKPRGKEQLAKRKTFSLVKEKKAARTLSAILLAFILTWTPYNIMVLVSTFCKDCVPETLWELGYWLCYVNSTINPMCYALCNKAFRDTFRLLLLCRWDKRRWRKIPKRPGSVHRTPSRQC
Procedure: GeneBLAzer M1-NFAT-bla CHO-K1 cells (or M3- or M5-NFAT-bla CHO-K1 cells)(ThermoFisher) were thawed into Assay Media (DMEM, 10% dialyzed FBS, 25 mM HEPES pH 7.3, 0.1 mM NEAA). 10,000 cells/well were added to a 384-well TC treated assay plate and incubated 16-24 h at 37° C. 4 μl of a 10× stock of antimuscarinic molecules was added to the plate and incubated 30 min. 4 μl of 10× control agonist Carbachol at the pre-determined EC80 concentration was added to wells containing antimuscarinic molecules. The plate was incubated 5 h and 8 μl of 1 μM Substrate+Solution D Loading Solution was added to each well and the plate was incubated 2 h at room temperature before reading on a fluorescence plate reader.

[4] = target: T2, estrogen receptor (T47D cells) (Homo sapiens, UniProt P03372); assay: Estrogen-dependent cell proliferation assay; assay type: cell-based; conditions: Compound 1 at 1 μM, TASIN-1 100 nM
T2 construct: estrogen dependent growth of T47D cells; endogenous in cells; host or cells: T47D
T2 sequence (P03372 1-595): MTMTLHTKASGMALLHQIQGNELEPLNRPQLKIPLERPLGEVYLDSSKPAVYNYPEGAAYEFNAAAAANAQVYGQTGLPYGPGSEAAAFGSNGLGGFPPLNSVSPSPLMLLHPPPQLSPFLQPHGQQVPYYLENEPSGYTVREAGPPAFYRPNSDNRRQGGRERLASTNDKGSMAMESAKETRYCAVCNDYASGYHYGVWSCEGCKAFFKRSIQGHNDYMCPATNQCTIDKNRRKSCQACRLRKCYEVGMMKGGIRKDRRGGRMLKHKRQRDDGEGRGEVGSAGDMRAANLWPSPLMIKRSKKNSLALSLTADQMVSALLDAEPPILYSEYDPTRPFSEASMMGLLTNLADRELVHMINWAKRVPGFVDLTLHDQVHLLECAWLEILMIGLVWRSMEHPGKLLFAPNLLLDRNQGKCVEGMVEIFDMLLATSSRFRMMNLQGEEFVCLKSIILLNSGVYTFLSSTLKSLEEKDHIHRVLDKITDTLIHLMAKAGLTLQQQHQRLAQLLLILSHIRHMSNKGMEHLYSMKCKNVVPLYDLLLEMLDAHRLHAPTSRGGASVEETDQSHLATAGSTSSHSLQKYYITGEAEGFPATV
Procedure: Estrogen-dependent cell proliferation was measured as previously described with minor modifications. After growth in estrogen-free media (Phenol red-free RPMI supplemented with 10% charcoal stripped fetal bovine serum) for 5 days, cells were seeded at 2,500 cells/well into 96 well plates. The following day 3× drug containing media was added to triplicate wells and cells were allowed to grow for an additional 5 days at 37° C. in standard a 5% CO2 humidified incubator. Total DNA per well was measured using an adaptation of the method of Labarca and Paigen. At this time media was removed, cells were washed one time with 0.25×PBS and 100 μl of distilled water was added. […] After incubation at room temperature for 2 hours, plates were read in a SpectraMax i3 fluorescent plate reader (Molecular Devices, Sunnyvale, CA) with excitation at 360 nm and emission at 460 nm. All values were converted to microgram DNA per well using a standard curve derived from purified salmon testes DNA.

[5] = target: kappa opioid receptor (Homo sapiens, UniProt P41145); assay: k-Opioid receptor agonism assay (Tango  U2OS cells); assay type: cell-based; conditions: Compound 1 at 1 μM, TASIN-1 100 nM, U50488 2 μM
Sequence of kappa opioid receptor (P41145 whole entry): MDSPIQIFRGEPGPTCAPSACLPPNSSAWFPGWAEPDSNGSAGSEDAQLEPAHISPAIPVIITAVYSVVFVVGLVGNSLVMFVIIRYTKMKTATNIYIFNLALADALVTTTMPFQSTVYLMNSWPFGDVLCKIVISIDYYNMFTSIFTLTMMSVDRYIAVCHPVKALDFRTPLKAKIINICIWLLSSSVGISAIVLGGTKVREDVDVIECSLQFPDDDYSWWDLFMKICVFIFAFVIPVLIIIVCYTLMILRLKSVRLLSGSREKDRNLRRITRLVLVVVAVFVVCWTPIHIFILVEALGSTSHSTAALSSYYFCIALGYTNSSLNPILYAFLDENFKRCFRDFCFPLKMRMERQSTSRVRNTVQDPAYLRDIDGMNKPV

Compound	activation at 0.03 µM [1] [%]	activation at 0.1 µM [1] [%]	activation at 0.3 µM [1] [%]	activation at 1 µM [1] [%]	enhancement of oligodendrocyte formation (in words) [1]	14-dehydrozymostenol accumulation in OPCs (indicative of TM7SF2 inhibition) ([2]; 1 μM)	EC50 for enhancing oligodendrocyte formation ([1]; wide concentration range)	cholesterol biosynthesis in OPCs ([2]; 10 μM screening dose)	lanosterol accumulation in OPCs (indicative of CYP51 inhibition) ([2]; 10 μM)	effect in cell-based assay for the M1 muscarinic receptor [3]	effect in cell-based assay for the estrogen receptor (estrogen dependent growth of T47D cells) [4]	effect in cell-based assay for the kappa opioid receptor [5]
CCN1CCN(Cc2ccc(-c3ccccc3)cc2)CC1 [Compound 2]	20 to 30	30 to 40	> 40	> 40								
c1ccc(-c2ccc(CN3CCCCCC3)cc2)cc1 [Compound 3]	20 to 30	20 to 30	30 to 40	> 40								
CCCCOc1ccc(CN2CCCCC2CC)cc1 (stereo not drawn) [Compound 4]	≤ 20	20 to 30	≤ 20	20 to 30								
Clc1ccc(CN2CCN(Cc3ccccc3)CC2)cc1Cl [Compound 5]	≤ 20	20 to 30	30 to 40	30 to 40								
CN1CCN(Cc2ccc(-c3ccccc3)cc2)CC1 [Compound 6]	≤ 20	20 to 30	30 to 40	30 to 40								
c1ccc(-c2ccc(CN3CCSCC3)cc2)cc1 [Compound 7]	≤ 20	30 to 40	20 to 30	30 to 40								
OC1CCCN(Cc2ccc(-c3ccccc3)cc2)C1 (stereo not drawn) [Compound 8]	20 to 30	20 to 30	30 to 40	30 to 40								
OCC1CCCN(Cc2ccc(-c3ccccc3)cc2)C1 (stereo not drawn) [Compound 9]	20 to 30	20 to 30	30 to 40	30 to 40								
CN(C(=O)c1ccc(-c2ccccc2)cc1)[C@@H]1Cc2ccc(CN3CCCCC3CO)cc2C1 (stereo partly drawn) [Compound 10]	20 to 30	30 to 40	> 40	> 40	strongly promoted oligodendrocyte formation	accumulated 14-dehydrozymostenol						
OCC1CCCCN1Cc1ccc(Cl)c(Cl)c1 (stereo not drawn) [Compound 11]	20 to 30	30 to 40	> 40	> 40	strongly promoted oligodendrocyte formation							
OCCN1CCN(Cc2ccc(-c3ccccc3)cc2)CC1 [Compound 12]	≤ 20	20 to 30	30 to 40	> 40								
NC(=O)C1CCN(Cc2ccc(-c3ccccc3)cc2)CC1 [Compound 13]	20 to 30	20 to 30	30 to 40	> 40								
CSc1ccc(CN2CCCCC2CO)cc1 (stereo not drawn) [Compound 14]	20 to 30	30 to 40	30 to 40	30 to 40								
Clc1ccc(CN2CCCCCC2)cc1Cl [Compound 15]	≤ 20	20 to 30	30 to 40	30 to 40								
OC1CCN(Cc2ccc(-c3ccccc3)cc2)CC1 [Compound 16]	20 to 30	20 to 30	20 to 30	30 to 40								
Clc1ccc(CN2CCCCCCC2)cc1Cl [Compound 17]	≤ 20	≤ 20	≤ 20	≤ 20								
c1ccc(-c2ccc(CNCCc3ccc(CN4CCCCC4)cc3)cc2)cc1 [Compound 18]	20 to 30	20 to 30	20 to 30	30 to 40								
CC(C)C(=O)NC(Cc1ccc(OCc2ccccc2)cc1)C(=O)NCCCN(C)c1ccccc1 (stereo not drawn) [Compound 19]	20 to 30	20 to 30	30 to 40	30 to 40			mid-nanomolar range	inhibition of cholesterol biosynthesis	accumulation of the 8,9-unsaturated sterol lanosterol			
COc1ccc(S(=O)(=O)N2CCC(N3CCC(C)CC3)CC2)cc1 [TASINI, TASIN-1, reference compound]										little affinity	little affinity	little affinity
